# Data from paper PMC4575908 (Chemistry & biology, 2015).
# Where “and” joins values, the source holds several entries; their conditions need not be identical. Equal entries are not always repeated. Where two headings read alike, the source gives them in different places.
# Legend:
# [1] = system: CPT-11-induced diarrhea in mice; settings: CPT-11 50 mg/kg i.p. without inhibitor
# patients = settings: cited from earlier work
smiles,measurement,setting,value
"CCc1c2c(nc3ccc(OC(=O)N4CCC(N5CCCCC5)CC4)cc13)-c1cc3c(c(=O)n1C2)COC(=O)[C@]3(O)CC [CPT-11, Irinotecan]",mice with bloody diarrhea,"[1]; day 8, 50 mg/kg",~ 25% and 25%
same,mice with bloody diarrhea,"[1]; day 9, 50 mg/kg",~ 60% and 60%
same,mice with bloody diarrhea,[1]; day 10,100%
same,patients showing grade 3–4 diarrhea,"patients; human, in vivo",31%
same,patients experiencing diarrhea,patients; ref Food and Drug Administration package insert for irinotecan,up to 88%
